Test results taken from patent publication US10881110B2, “Herbicidal compositions comprising isoxazolo[5,4-b]pyridines” (BASF SE, priority 2014, dated 2021).
Where two headings read alike, the source gives them in different places.

How the values were obtained:
Experiment in all cases: greenhouse post-emergence herbicidal test
AMARE = format: in vivo, Amaranthus retroflexus
Procedure, shortened: (§1)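 Test plants, sown directly or transplanted a few days earlier, are treated at 1–15 cm height with emulsified or suspended actives in water. Temperatures run 10-25° C or 20-35° C by species; injury is scored 0–100 twenty days after spraying.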

CONAR = format: in vivo, Convolvulus arvensis; set-up: key: rating on a scale from 0 to 100
Procedure, shortened: as §1

ECHCG = format: in vivo, Echinochloa crus-galli; set-up: key to herbicidal activity against ECHCG found / herbicidal activity against ECHCH found: scale 0 to 100; conditions: post emergence
Procedure, shortened: as §1

KCHSC = format: in vivo, Kochia scoparia; set-up: key to herbicidal activity against KCHSC found: rating on a scale from 0 to 100; conditions: post emergence
Procedure, shortened: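 Post-emergence greenhouse test: plants in loamy sand, sprayed at 1–15 cm height with aqueous spray liquor from 10% emulsion concentrates, kept at 10-25 °C or 20-35 °C by species. Damage scored 0–100 (100 = complete destruction), usually 20 days after treatment. Expected additive effect E from Colby: E=X+Y−(X·Y/100).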

[1] = 6 days after treatment, g/ha a.i.: I.1 31.25, naptalam 100, mixture 31.25+100
[2] = 6 days after treatment, g/ha a.i.: I.1 31.25, naptalam 200, mixture 31.25+200
[3] = a.i. g/ha: I.1 20.8, B.67 62.5, 20 days after treatment
[4] = a.i. g/ha: I.1 62.5, B.67 62.5, 20 days after treatment
[5] = I.1 31.25 g/ha, B.103 7.5 g/ha a.i.

O=C(O)c1cc(C2CC2)nc2onc(C3CC3)c12 [I.1]
herbicidal activity against AMARE found (AMARE; a.i. g/ha: I.1 15.6, B.190 62.5, 20 days after treatment): 30% | herbicidal activity against AMARE found (AMARE; a.i. g/ha: I.1 20.8, B.192 62.5, 20 days after treatment): 70% | herbicidal activity against AMARE found (AMARE; a.i. g/ha: I.1 31.25, B.190 62.5, 20 days after treatment): 35% | herbicidal activity against AMARE found (AMARE; a.i. g/ha: I.1 31.25, B.76 225, 20 days after treatment): 90% | herbicidal activity against AMARE found (AMARE; a.i. g/ha: I.1 31.25, bentazon Na 125, 20 days after treatment): 35% | herbicidal activity against CONAR found (CONAR; 31.25 g/ha a.i.): 40 | herbicidal activity against CONAR found (CONAR; 62.5 g/ha a.i.): 60 | herbicidal activity against CONAR found (CONAR; 125 g/ha a.i.): 70 | herbicidal activity against CONAR found (CONAR; 6 days after treatment, g/ha a.i.: I.1 31.25, naptalam 50, mixture 31.25+50): 5 | herbicidal activity against CONAR found (CONAR; [1]): 5 | herbicidal activity against CONAR found (CONAR; [2]): 5 | herbicidal activity against CONAR found (CONAR; 6 days after treatment, g/ha a.i.: I.1 62.5, B.96 140, mixture 62.5+140): 65 | herbicidal activity against CONAR found (CONAR; 6 days after treatment, g/ha a.i.: I.1 125, naptalam 100, mixture 125+100): 70 | herbicidal activity against CONAR found (CONAR; a.i. g/ha: I.1 7.8, B.67 125, 20 days after treatment): 0% | herbicidal activity against CONAR found (CONAR; a.i. g/ha: I.1 15.6, B.67 125, 20 days after treatment): 0% | herbicidal activity against CONAR found (CONAR; [3]): 0% | herbicidal activity against CONAR found (CONAR; a.i. g/ha: I.1 31.25, B.67 125, 20 days after treatment): 0% | herbicidal activity against CONAR found (CONAR; a.i. g/ha: I.1 31.25, B.69 25, 20 days after treatment): 70% | herbicidal activity against CONAR found (CONAR; [4]): 25% | herbicidal activity against CONAR found (CONAR; a.i. g/ha: I.1 62.5, B.67 125, 20 days after treatment): 0% | herbicidal activity against CONAR found (CONAR; a.i. g/ha: I.1 62.5, B.69 25, 20 days after treatment): 65% | herbicidal activity against CONAR found (CONAR; a.i. g/ha: I.1 62.5, B.76 225, 20 days after treatment): 65% | herbicidal activity against CONAR found (CONAR; a.i. g/ha: I.1 62.5, B.77 75, 20 days after treatment): 25% | herbicidal activity against CONAR found (CONAR; a.i. g/ha: I.1 62.5, B.80 250, 20 days after treatment): 25% | herbicidal activity against CONAR found (CONAR; application rate a.i.: I.1 31.25 g/ha, B.139 (pyroxasulfone) 12.5 g/ha, alone or as mixture (composition 1.139)): 30 | herbicidal activity against CONAR found (CONAR; application rate a.i.: I.1 31.25 g/ha, B.139 (pyroxasulfone) 25 g/ha, alone or as mixture (composition 1.139)): 30 | herbicidal activity against CONAR found (CONAR; application rate a.i.: I.1 62.5 g/ha, B.30 (imazamox) 3.75 g/ha, alone or as mixture (composition 1.030)): 25 | herbicidal activity against CONAR found (CONAR; application rate a.i.: I.1 62.5 g/ha, B.84 (paraquat-dichloride) 17.5 g/ha, alone or as mixture (composition 1.84)): 45 | herbicidal activity against CONAR found (CONAR; application rate a.i.: I.1 125 g/ha, B.113 (glyphosate) 33.75 g/ha, alone or as mixture (composition 1.113)): 80 | pest or weed control at 31.25 g/ha (ECHCG; Echinochloa crus-galli, post-emergence, 480 h, I.1 alone 31.25 g/ha a.i., read-out: herbicidal activity against ECHCG found): 0% | pest or weed control at 62.5 g/ha (ECHCG; Echinochloa crus-galli, post-emergence, 480 h, I.1 alone 62.5 g/ha a.i., read-out: herbicidal activity against ECHCG found): 45% | pest or weed control at 31.25 g/ha (ECHCG; Echinochloa crus-galli, post-emergence, 480 h, 31.25 g/ha a.i., read-out: herbicidal activity against ECHCG found): 0% | pest or weed control at 31.25 g/ha (ECHCG; Echinochloa crus-galli, post-emergence, 480 h, I.1 31.25 g/ha a.i., read-out: herbicidal activity against ECHCG found): 70% | pest or weed control at 15.62 g/ha (ECHCG; Echinochloa crus-galli, post-emergence, 480 h, single active, 15.62 g/ha a.i., read-out: herbicidal activity against ECHCG found): 0% | pest or weed control at 31.25 g/ha (ECHCG; Echinochloa crus-galli, post-emergence, 480 h, single active, 31.25 g/ha a.i., read-out: herbicidal activity against ECHCG found): 10% | herbicidal activity against ECHCG found (ECHCG; I.1 15.62 g/ha, B.167 125 g/ha a.i.): 0 | herbicidal activity against ECHCG found (ECHCG; I.1 15.62 g/ha, B.95 1 g/ha a.i.): 10 | herbicidal activity against ECHCG found (ECHCG; [5]): 10 | herbicidal activity against ECHCG found (ECHCG; I.1 31.25 g/ha, B.167 125 g/ha a.i.): 10 | herbicidal activity against ECHCG found (ECHCG; I.1 62.5 g/ha, B.95 2 g/ha a.i.): 55 | herbicidal activity against ECHCH found (ECHCG; I.1 125 g/ha a.i.): 85 | herbicidal activity against ECHCG found (ECHCG; [3]): 30% | herbicidal activity against ECHCG found (ECHCG; [4]): 65% | herbicidal activity against ECHCG found (ECHCG; a.i. g/ha: I.1 62.5, B.79 25, 20 days after treatment): 65% | herbicidal activity against ECHCG found (ECHCG; application rate a.i.: I.1 31.25 g/ha, B.40 (imazethapyr) 7.5 g/ha, alone or as mixture (composition 1.40)): 0 | herbicidal activity against ECHCG found (ECHCG; application rate a.i.: I.1 250 g/ha, B.193 15 g/ha, alone or as mixture (composition 1.193)): 95 | pest or weed control at 31.25 g/ha (KCHSC; Bassia scoparia, post-emergence, 480 h, I.1 alone 31.25 g/ha a.i., read-out: herbicidal activity against KCHSC found): 70% | pest or weed control at 62.5 g/ha (KCHSC; Bassia scoparia, post-emergence, 480 h, I.1 alone 62.5 g/ha a.i., read-out: herbicidal activity against KCHSC found): 85% | pest or weed control at 31.25 g/ha (KCHSC; Bassia scoparia, post-emergence, 480 h, 31.25 g/ha a.i., read-out: herbicidal activity against KCHSC found): 75% | pest or weed control at 125 g/ha (KCHSC; Bassia scoparia, post-emergence, 480 h, I.1 125 g/ha a.i., read-out: herbicidal activity against KCHSC found): 95% | pest or weed control at 15.625 g/ha (KCHSC; Bassia scoparia, post-emergence, 480 h, single active, 15.625 g/ha a.i., read-out: herbicidal activity against KCHSC found): 0% | pest or weed control at 31.25 g/ha (KCHSC; Bassia scoparia, post-emergence, 480 h, single active, 31.25 g/ha a.i., read-out: herbicidal activity against KCHSC found): 30% | pest or weed control at 62.5 g/ha (KCHSC; Bassia scoparia, post-emergence, 480 h, single active, 62.5 g/ha a.i., read-out: herbicidal activity against KCHSC found): 70% | herbicidal activity against KCHSC found (KCHSC; 6 days after treatment, g/ha a.i.: I.1 31.25, B.96 35, mixture 31.25+35): 10 | herbicidal activity against KCHSC found (KCHSC; 6 days after treatment, g/ha a.i.: I.1 31.25, B.96 70, mixture 31.25+70): 10 | herbicidal activity against KCHSC found (KCHSC; 6 days after treatment, g/ha a.i.: I.1 31.25, B.96 140, mixture 31.25+140): 10 | herbicidal activity against KCHSC found (KCHSC; [1]): 10 | herbicidal activity against KCHSC found (KCHSC; [2]): 10 | herbicidal activity against KCHSC found (KCHSC; 6 days after treatment, g/ha a.i.: I.1 62.5, B.96 35, mixture 62.5+35): 90 | herbicidal activity against KCHSC found (KCHSC; 6 days after treatment, g/ha a.i.: I.1 62.5, B.96 70, mixture 62.5+70): 90 | herbicidal activity against KCHSC found (KCHSC; I.1 15.62 g/ha, B.88 1 g/ha a.i.): 45 | herbicidal activity against KCHSC found (KCHSC; [5]): 30 | herbicidal activity against KCHSC found (KCHSC; I.1 31.25 g/ha, B.103 15 g/ha a.i.): 30 | herbicidal activity against KCHSC found (KCHSC; I.1 31.25 g/ha, B.167 62.5 g/ha a.i.): 30 | herbicidal activity against KCHSC found (KCHSC; I.1 31.25 g/ha, B.88 1 g/ha a.i.): 55 | herbicidal activity against KCHSC found (KCHSC; I.1 62.5 g/ha, B.103 7.5 g/ha a.i.): 70 | herbicidal activity against KCHSC found (KCHSC; I.1 62.5 g/ha, B.103 15 g/ha a.i.): 70 | herbicidal activity against KCHSC found (KCHSC; I.1 62.5 g/ha, B.167 62.5 g/ha a.i.): 70 | herbicidal activity against KCHSC found (KCHSC; I.1 62.5 g/ha, B.88 1 g/ha a.i.): 80 | herbicidal activity against KCHSC found (KCHSC; applied alone at 31.25 g/ha a.i.): 80 | herbicidal activity against KCHSC found (KCHSC; applied alone at 125 g/ha a.i.): 95 | herbicidal activity against KCHSC found (KCHSC; g/ha a.i.: I.1 31.25, B.24 1, mixture 31.25+1): 40 | herbicidal activity against KCHSC found (KCHSC; g/ha a.i.: I.1 31.25, B.24 2, mixture 31.25+2): 40
